Consider 13 compounds from patent US20260242395A1, “AMINOHETEROARYL KINASE INHIBITORS” (ALLORION THERAPEUTICS INC, priority 2022, published 2026).

Holding throughout (type): biochemical
One experiment concerns the target T1, CDK6/CyclinD3 (Homo sapiens, UniProt Q00534).
T1 construct: purchased Carna 04-107
As to the kind of experiment: CDK6/CyclinD3 kinase inhibitory activity (Caliper mobility shift). Conditions: enzyme 15 nM, ATP 800 μM, 28° C. 30 min; read-out: CDK6/Cyclin D3 IC50. An outline of the steps: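 Compound preincubated 10 min at room temperature with CDK6/CyclinD3 (15 nM final) in HEPES pH 7.5/MgCl2/DTT buffer; reaction with 5-FAM peptide (3000 nM) and ATP 800 μM, 30 min at 28°C, stopped with EDTA. Substrate/product separated by microfluidic mobility shift; % conversion converted to % inhibition, IC50 from dose-response curves.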

Another experiment concerns the target T2, CDK7/CyclinH/MAT1 (Homo sapiens, UniProt P50613).
T2 construct: purchased Millipore 14-476M
The experiment in a line: CDK7/CyclinH/MAT1 kinase inhibitory activity (Caliper mobility shift). Conditions: enzyme 12.5 nM, ATP 70 μM, 28° C. 30 min; read-out: CDK7/Cyclin H/MAT1 IC50. Here is the method:
CDK7/CyclinH/MAT1 kinase inhibitory activity (IC50): 5 μl of various dilutions of test compound in 1× kinase buffer (20 mM HEPES, pH 7.5, 10 mM MgCl2, 2 mM DTT and 0.01% Triton X-100) was mixed with 10 μL of CDK7/CyclinH/MAT1 (Millipore, 14-476M #, final concentration 12.5 nM in 1× Kinase buffer) in 384 plates and incubated at room temperature for 10 min. To initiate each reaction, 10 μL of peptide solution containing fluorescently-labeled-peptide CTD3 (5-FAM-[…], GL, SY346885 #, final concentration 3000 nM) and ATP (final concentration 70 μM) in 1× Kinase buffer was added to each of the wells containing test compound and CDK7/CyclinH/MAT1 mixture. The reaction is then allowed to proceed at 28° C. for 30 min and terminated by the addition of 25 μL stop buffer (100 mM HEPES pH 7.5, 50 mM EDTA, 0.2% Coating Reagent #3 (Perkin Elmer, 760050 #) and 0.015% Brij-35).
(§1) Following the kinase reaction, Caliper EZ reader II (Downstream voltages: −500V, Upstream voltages: −2250V, Base pressure −0.5 PSI, Screen pressure −1.2 PSI) was used to separate the phosphoiylated (product) and the unphosphorylated (substrate) fluorescently-labeled peptide CTD3 based on their different mobility. Both substrate and product were measured and the ratio of these values were used to generate % conversion by Caliper EZ reader II. These conversion values were then transformed into % inhibition of kinase activity using the formula: % Inhibition=[(MA−X)/(MA−MI)]×100% where MA=conversion value of DMSO only controls, MI=conversion value of no enzyme controls and X=conversion value at any given compound dose. IC50 values were then calculated by plotting dose-response curves and then using the XLfit application in Excel software.

The target in a further experiment is T3, CDK1/CyclinB (Homo sapiens, UniProt P06493).
T3 construct: purchased Millipore 14-450M
T3 sequence (P06493 whole entry): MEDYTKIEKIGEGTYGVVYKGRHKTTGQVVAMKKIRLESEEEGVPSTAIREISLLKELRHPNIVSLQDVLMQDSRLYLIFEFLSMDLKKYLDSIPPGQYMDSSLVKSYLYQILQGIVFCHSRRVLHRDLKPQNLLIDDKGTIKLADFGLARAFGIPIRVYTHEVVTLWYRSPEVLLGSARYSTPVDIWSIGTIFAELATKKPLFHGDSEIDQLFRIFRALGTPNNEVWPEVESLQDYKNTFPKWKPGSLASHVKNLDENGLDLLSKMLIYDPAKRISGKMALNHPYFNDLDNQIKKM
T3 sequence (P14635 whole entry partner): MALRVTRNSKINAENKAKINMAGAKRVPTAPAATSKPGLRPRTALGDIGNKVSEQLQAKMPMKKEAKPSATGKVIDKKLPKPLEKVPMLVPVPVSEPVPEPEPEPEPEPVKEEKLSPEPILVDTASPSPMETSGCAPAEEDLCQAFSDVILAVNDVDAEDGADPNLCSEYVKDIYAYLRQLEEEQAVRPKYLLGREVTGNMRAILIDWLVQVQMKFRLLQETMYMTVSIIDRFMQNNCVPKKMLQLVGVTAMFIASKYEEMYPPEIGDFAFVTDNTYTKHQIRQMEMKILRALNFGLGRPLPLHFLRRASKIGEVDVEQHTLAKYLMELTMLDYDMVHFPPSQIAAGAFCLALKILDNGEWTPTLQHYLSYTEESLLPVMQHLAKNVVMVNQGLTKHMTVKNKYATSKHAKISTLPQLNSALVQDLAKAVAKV
The experiment in a line: CDK1/CyclinB kinase inhibitory activity (Caliper mobility shift). Conditions: enzyme 3 nM, ATP 20 μM, 28° C. 30 min; read-out: CDK1/Cyclin B1 IC50. Here is the method: CDK1/CyclinB kinase inhibitory activity (IC50): 5 μl of various dilutions of test compound in 1× kinase buffer (50 mM HEPES pH 7.5, 10 mM MgCl2, 2 mM DTT and 0.01% Brij-35) was mixed with 10 μL of CDK1/CyclinB (Millipore, 14-450M #, final concentration 3 nM in 1× Kinase buffer) in 384 plates and incubated at room temperature for 10 min. To initiate each reaction, 10 μL of peptide solution containing fluorescently-labeled-peptide 18(5-FAM-QSPKKG-CONH2) (GL, 114202 #, final concentration 3000 nM) and ATP (final concentration 20 μM) in 1× Kinase buffer was added to each of the wells containing test compound and CDK1/CyclinB mixture. The reaction is then allowed to proceed at 28° C. for 30 min and terminated by the addition of 25 μL stop buffer (100 mM HEPES pH 7.5, 50 mM EDTA, 0.2% Coating Reagent #3 (Perkin Elmer, 760050 #) and 0.015% Brij-35).
as §1, with “phosphorylated” for “phosphoiylated”, “18” for “CTD3”

T1 sequence (Q00534 whole entry): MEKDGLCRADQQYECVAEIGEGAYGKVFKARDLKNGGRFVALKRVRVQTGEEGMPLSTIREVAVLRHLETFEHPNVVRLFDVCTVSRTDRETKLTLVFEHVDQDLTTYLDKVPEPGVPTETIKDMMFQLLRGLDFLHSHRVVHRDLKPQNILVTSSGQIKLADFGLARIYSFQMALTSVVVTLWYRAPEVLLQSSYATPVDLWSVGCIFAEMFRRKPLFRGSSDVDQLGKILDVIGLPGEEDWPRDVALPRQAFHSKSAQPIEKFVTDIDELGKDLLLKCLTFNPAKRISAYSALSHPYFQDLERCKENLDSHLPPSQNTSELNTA
T1 sequence (P30281 whole entry partner): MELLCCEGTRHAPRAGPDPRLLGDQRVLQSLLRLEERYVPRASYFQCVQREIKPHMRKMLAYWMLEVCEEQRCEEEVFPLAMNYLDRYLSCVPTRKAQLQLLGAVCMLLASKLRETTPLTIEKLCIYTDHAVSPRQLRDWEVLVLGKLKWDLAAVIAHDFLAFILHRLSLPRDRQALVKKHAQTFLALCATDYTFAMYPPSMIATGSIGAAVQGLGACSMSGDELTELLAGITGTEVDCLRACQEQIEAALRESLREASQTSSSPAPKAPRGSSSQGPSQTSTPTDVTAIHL
T2 sequence (P50613 whole entry): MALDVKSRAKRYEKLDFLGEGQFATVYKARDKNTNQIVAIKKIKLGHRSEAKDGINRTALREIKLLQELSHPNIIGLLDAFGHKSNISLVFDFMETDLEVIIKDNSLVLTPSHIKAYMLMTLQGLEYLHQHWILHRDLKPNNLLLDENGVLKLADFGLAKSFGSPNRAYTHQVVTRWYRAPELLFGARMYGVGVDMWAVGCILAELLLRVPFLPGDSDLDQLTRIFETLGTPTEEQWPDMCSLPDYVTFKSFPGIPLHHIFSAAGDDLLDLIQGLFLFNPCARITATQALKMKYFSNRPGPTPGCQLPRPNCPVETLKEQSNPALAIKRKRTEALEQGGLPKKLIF
T2 sequence (P51946 whole entry partner): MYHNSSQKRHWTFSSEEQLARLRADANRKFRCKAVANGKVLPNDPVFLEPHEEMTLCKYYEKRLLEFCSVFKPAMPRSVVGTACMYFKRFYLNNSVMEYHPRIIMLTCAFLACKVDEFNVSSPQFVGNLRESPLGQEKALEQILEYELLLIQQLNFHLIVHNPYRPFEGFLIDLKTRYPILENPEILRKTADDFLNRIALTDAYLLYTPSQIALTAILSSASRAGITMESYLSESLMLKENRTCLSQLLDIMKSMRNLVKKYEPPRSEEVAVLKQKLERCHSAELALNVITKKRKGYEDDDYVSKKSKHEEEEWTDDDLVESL
T2 sequence (P51948 whole entry partner): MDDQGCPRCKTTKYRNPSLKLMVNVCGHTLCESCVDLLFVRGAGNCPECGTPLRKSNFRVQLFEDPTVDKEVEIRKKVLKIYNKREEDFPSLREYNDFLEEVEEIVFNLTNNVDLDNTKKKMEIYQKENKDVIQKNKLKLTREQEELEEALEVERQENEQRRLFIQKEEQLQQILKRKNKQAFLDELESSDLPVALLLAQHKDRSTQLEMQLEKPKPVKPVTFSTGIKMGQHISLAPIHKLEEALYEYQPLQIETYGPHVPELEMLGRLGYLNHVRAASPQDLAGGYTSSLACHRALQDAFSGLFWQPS

For the compound `Cc1c(C(C)(C)O)cnc2c(F)cc(-c3nc(N[C@@H]4CCOC[C@H]4O)ncc3Cl)cc12` [Example 7, (3S,4R)-4-((5-chloro-4-(8-fluoro-3-(2-hydroxypropan-2-yl)-4-methylquinolin-6-yl)pyrimidin-2-yl)amino)tetrahydro-2H-pyran-3-ol], the IC50 at CDK6/CyclinD3 is 10 to 100 nM; at CDK7/CyclinH/MAT1, ≥ 1000 nM; on CDK1/CyclinB, 100 to 1000 nM.
For `O[C@@H]1COCC[C@H]1Nc1ncc(Cl)c(-c2cc(F)c3ncc4c(c3c2)CNCC4)n1` [Example 9, (3S,4R)-4-((5-chloro-4-(7-fluoro-1,2,3,4-tetrahydrobenzo[c][2,6]naphthyridin-9-yl)pyrimidin-2-yl)amino)tetrahydro-2H-pyran-3-ol] the same measures were 100 to 1000 nM, 100 to 1000 nM and 100 to 1000 nM.
Take `[2H]c1nc2c(F)cc(-c3nc(N[C@@H]4CCOC[C@H]4O)ncc3C)cc2c2c1CC(C)(C)NC2` [Example 102]: the IC50 at CDK6/CyclinD3 was 100 to 1000 nM; at CDK7/CyclinH/MAT1, ≥ 1000 nM; on CDK1/CyclinB it was ≥ 1000 nM.
As to `CC(C)(O)c1cnc2c(F)cc(-c3nc(N[C@@H]4CCOC[C@H]4O)ncc3F)cc2c1Cl` [Example 22, (3S,4R)-4-((4-(4-chloro-8-fluoro-3-(2-hydroxypropan-2-yl)quinolin-6-yl)-5-fluoropyrimidin-2-yl)amino)tetrahydro-2H-pyran-3-ol], the IC50 on CDK6/CyclinD3 fell in the range of 10 to 100 nM; on CDK7/CyclinH/MAT1 it was 100 to 1000 nM; on CDK1/CyclinB it was 100 to 1000 nM.
For `Cc1nc2c(F)cc(-c3nc(N[C@@H]4CCOC[C@H]4O)ncc3Cl)cc2cc1C(C)NC1CC1` (single isomer, unassigned) [Example 73b], the IC50 is 10 to 100 nM at CDK6/CyclinD3, ≥ 1000 nM on CDK7/CyclinH/MAT1 and 100 to 1000 nM at CDK1/CyclinB.
On to `CC(O)c1cnc2c(F)cc(-c3nc(N[C@@H]4CCOC[C@H]4O)ncc3Cl)cc2c1Cl` (single isomer, unassigned) [Example 40a], for which the IC50 at CDK6/CyclinD3 and on CDK7/CyclinH/MAT1 was 100 to 1000 nM each time.
Regarding `CC(C)(O)c1cnc2c(F)cc(-c3nc(Nc4ccc(-c5c[nH]cn5)cn4)ncc3F)cc2c1Cl` [Example 52], the IC50 was 10 to 100 nM on CDK6/CyclinD3, ≥ 1000 nM at CDK7/CyclinH/MAT1 and ≥ 1000 nM on CDK1/CyclinB.
With `CC1Cc2cnc3c(F)cc(-c4nc(N[C@@H]5CCOC[C@H]5O)ncc4Cl)cc3c2CN1` (single isomer, unassigned) [Example 34b], the results for the IC50 at CDK6/CyclinD3, at CDK7/CyclinH/MAT1 and on CDK1/CyclinB were 100 to 1000 nM, ≥ 1000 nM and ≥ 1000 nM, respectively.
On to `Cc1nc2c(F)cc(-c3nc(N[C@@H]4CCOC[C@H]4O)ncc3Cl)cc2c(Cl)c1C(C)O` (single isomer, unassigned) [Example 35a], for which the IC50 was 10 to 100 nM at CDK6/CyclinD3, ≥ 1000 nM at CDK7/CyclinH/MAT1 and 100 to 1000 nM at CDK1/CyclinB.
Consider `Cc1nc2c(F)cc(-c3nc(N[C@@H]4CCOC[C@H]4O)ncc3Cl)cc2c(C)c1[C@H](C)O` (single isomer, unassigned) [Example 15b], for which the results for the IC50 on CDK6/CyclinD3, at CDK7/CyclinH/MAT1 and on CDK1/CyclinB were 10 to 100 nM, 100 to 1000 nM and 100 to 1000 nM, respectively.
On to `O[C@@H]1COCC[C@H]1Nc1ncc(Cl)c(-c2cc(F)c3ncc4c(c3c2)C2CCC(C4)N2)n1` (single isomer, unassigned) [Example 20b], for which the IC50 at CDK6/CyclinD3, on CDK7/CyclinH/MAT1 and at CDK1/CyclinB was 100 to 1000 nM in each case.
`[2H]c1nc(N[C@@H]2CCOC[C@H]2O)nc(-c2cc(F)c3nc(C)c(C(C)(C)O)cc3c2)c1F` [Example 83]: the IC50 on CDK6/CyclinD3, on CDK7/CyclinH/MAT1 and on CDK1/CyclinB was 100 to 1000 nM each time.
As for `Cc1nc2c(F)cc(-c3nc(N[C@@H]4CCOC[C@H]4O)ncc3Cl)cc2cc1C1CCCN1` (single isomer, unassigned) [Example 57a], the IC50 at CDK6/CyclinD3 was 100 to 1000 nM; at CDK7/CyclinH/MAT1 it was ≥ 1000 nM; on CDK1/CyclinB, 100 to 1000 nM.
